{"source": "patent US20050014834A1", "about": "“Selective anesthetic agents and methods of identifying the same” (priority 2001, published 2005)", "key": {"[1]": {"system": "GABAA receptors", "settings": "cited from earlier work; for potentiation of the action of GABA: native and all recombinant GABAA receptors studied to date"}, "[2]": {"system": "β2N289S knock-in and wildtype mice", "test": "Loss of righting reflex (LORR) as behavioural measure of anesthesia", "type": "in vivo, mouse", "description": "Loss of righting reflex (LORR) was used as a crude behavioural measure of anesthesia. Mice (n=11 wildtype, n=10 knock-in for each dose) were dosed intraperitoneally (i.p.) with 20, 30 or 40 mg/kg etomidate. Each mouse was placed in a separate cage and tested for LORR by gently rolling the mouse on it back. When the righting reflex had disappeared (usually around 90 seconds) the mouse was laid on it back on a piece of corrugated plastic and the time until righting reflex was regained was recorded. In order to avoid excessive heat loss during anesthesia a heat lamp was placed above the mice. To control for non-specific changes in anesthetic sensitivity induced by the mutation two different classes of anesthetics were also tested in this model: pentobarbitone, 50 mg/kg i.p. (n=11) and midazolam, 80 mg/kg i.p. (n=5)."}, "[3]": {"system": "β2N289S knock-in and wildtype mice", "test": "Rotarod test of motor co-ordination: recovery following etomidate anesthesia", "type": "in vivo, mouse", "settings": "for time mice could stay on rotarod: 90 minutes after testing began, rod 16 rpm, 120 second trial", "description": "Wildtype (n=30) and knock-in (n=30) mice were trained to perform the rotarod test of motor co-ordination. Mice were placed on a rod revolving at 16 rpm and the time taken for them to fall off recorded. Each mouse was given successive training trials until it could remain on the rod for 3 consecutive trials of 120 second duration. Mice were then split into 3 groups (n=10 for each genotype) and dosed i.p. with 15, 20 or 30 mg/kg etomidate. Mice were then placed back on the rotarod every 10 minutes (for 90 minutes), starting from the mean time for recovery of righting reflex for a given dose (obtained from experiment 1). In this way the rate of recovery of the ability to perform a motor task could be assessed."}, "[4]": {"system": "β2N289S knock-in and wildtype mice", "test": "Level of anaesthesia by electroencephalography (EEG burst suppression)", "type": "in vivo, mouse", "settings": "12.5 mg/kg intravenous; FIG. 4", "description": "In order to compare the depth of anaesthesia in both genotypes, wildtype (n=4) and knock-in (n=4) mice were implanted with radiotelemetry transmitters for the measurement of electroencephalographic (EEG) data. Mice were allowed to recover from the surgical procedure for 14-21 days before experiment. Mice were dosed with 12.5 mg/kg etomidate by the intravenous route and EEG data was continuously sampled. Data sampled at 250 Hz (transmitter bandwidth 0.5-100 Hz, low pass data filter 70 Hz). Data analysed using Somnologica 3 in 100 mSec epochs for % suppression activity per minute. Isoelectric window defined as waveform amplitude less than 5 μV (typical peak to peak amplitude ˜250 μV)."}, "[5]": {"system": "β2N289S knock-in and wildtype mice", "test": "Post-anaesthetic slow wave sleep by EEG (hypnotic hangover)", "type": "in vivo, mouse", "settings": "12.5 mg/kg intravenous, FIG. 5", "description": "In order to quantify the amount of post-anaesthetic sleep, wildtype (n=4) and knock-in (n=4) mice were implanted with radiotelemetry transmitters for the measurement of electroencephalographic (EEG) data. Mice were allowed to recover from the surgical procedure for 13 days before experiment. Baseline EEG data was recorded on day 1 of the experimental protocol. On the 2nd experimental day, mice were dosed with 12.5 mg/kg etomidate by the intravenous route and EEG data was continuously sampled. EEG data sampled at 250 Hz (transmitter bandwidth 0.5-100 Hz, low pass data filter 70 Hz). Data analysed using Somnologica 3 in 8 sec epochs and scored for either “wake” or “slow wave sleep” according to standard electrophysiological criteria (van Gool, W. A. & Mirmiran, M., Sleep, 9, 335 (1986)). Following recovery from etomidate anaesthesia, the amount of slow wave sleep was expressed as percentage of the circadian timed matched baseline."}, "[6]": {"biological_target": "GABAA receptor β3 subunit N289S (Homo sapiens, UniProt P28472+Q16445, N290S)", "sequence (P28472 26-473 N290S, one chain of several)": "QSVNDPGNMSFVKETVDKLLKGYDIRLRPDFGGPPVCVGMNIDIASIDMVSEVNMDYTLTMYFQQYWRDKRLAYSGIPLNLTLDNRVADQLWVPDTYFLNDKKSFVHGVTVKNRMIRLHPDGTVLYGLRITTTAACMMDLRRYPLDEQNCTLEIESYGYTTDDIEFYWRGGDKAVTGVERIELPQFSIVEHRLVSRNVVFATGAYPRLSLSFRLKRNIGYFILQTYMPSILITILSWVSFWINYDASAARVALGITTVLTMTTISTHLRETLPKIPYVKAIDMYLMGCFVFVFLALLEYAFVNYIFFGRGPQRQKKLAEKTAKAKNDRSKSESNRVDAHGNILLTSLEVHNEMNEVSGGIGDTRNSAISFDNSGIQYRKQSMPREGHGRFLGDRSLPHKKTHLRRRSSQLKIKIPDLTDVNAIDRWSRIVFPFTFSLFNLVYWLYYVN", "sequence (Q16445 20-453, one chain of several)": "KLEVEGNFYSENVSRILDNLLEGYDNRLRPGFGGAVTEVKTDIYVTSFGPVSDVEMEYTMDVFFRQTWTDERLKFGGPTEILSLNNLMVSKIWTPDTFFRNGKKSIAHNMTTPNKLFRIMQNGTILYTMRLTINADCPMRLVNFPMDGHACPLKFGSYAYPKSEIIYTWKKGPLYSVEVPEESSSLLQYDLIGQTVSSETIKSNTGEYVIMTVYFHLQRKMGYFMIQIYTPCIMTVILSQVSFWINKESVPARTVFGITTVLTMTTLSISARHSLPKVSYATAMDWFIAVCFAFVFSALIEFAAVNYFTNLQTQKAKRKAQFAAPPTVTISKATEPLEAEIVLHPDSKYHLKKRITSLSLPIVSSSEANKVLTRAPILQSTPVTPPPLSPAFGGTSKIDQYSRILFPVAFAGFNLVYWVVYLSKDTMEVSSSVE", "settings": "asparagine 289 of β3 to serine; cited from earlier work"}, "[7]": {"biological_target": "T1, human GABAA receptor β2 subunit (position 289 mutant) (Homo sapiens, UniProt P14867+P47870, N289S)", "T1 construct": "expressed in transfected cells", "T1 sequence (P47870 25-512 N289S limits assumed)": "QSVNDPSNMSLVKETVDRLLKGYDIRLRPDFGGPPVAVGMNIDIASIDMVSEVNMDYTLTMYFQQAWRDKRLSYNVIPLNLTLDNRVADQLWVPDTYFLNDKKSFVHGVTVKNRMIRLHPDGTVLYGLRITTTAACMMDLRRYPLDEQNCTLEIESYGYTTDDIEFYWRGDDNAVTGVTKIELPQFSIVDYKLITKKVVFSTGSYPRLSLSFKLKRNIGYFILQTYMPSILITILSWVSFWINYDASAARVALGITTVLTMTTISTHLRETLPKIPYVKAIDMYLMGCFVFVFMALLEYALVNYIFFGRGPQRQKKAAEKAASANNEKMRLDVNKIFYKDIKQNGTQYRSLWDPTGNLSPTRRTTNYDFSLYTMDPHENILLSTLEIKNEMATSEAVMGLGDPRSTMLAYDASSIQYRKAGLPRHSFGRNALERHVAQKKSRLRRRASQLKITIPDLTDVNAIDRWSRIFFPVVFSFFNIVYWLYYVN", "T1 sequence (P14867 28-456)": "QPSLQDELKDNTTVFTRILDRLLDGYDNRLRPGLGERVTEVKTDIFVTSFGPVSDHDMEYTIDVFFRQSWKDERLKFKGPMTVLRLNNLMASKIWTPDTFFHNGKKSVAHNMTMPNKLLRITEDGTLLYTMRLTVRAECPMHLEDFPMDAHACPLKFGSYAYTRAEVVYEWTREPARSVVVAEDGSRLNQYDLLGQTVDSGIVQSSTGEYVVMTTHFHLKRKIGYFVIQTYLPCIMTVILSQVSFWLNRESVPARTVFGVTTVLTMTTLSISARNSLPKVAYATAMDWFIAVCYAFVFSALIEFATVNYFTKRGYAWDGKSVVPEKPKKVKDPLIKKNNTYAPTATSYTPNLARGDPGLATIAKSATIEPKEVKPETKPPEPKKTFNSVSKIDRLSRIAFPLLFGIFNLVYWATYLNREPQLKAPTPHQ", "T1 sequence (P18507 40-467 partner limits assumed)": "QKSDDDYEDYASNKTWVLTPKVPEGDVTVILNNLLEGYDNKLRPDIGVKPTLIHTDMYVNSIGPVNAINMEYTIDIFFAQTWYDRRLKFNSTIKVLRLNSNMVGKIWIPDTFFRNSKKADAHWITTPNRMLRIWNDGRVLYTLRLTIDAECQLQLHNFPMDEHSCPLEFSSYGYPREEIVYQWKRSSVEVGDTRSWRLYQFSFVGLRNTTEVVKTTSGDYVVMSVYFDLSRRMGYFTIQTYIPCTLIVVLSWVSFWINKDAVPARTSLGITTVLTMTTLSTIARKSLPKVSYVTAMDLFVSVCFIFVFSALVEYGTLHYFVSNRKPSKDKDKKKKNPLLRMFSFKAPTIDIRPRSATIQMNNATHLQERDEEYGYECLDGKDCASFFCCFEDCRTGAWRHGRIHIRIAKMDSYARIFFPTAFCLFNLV", "settings": "recombinant receptors expressed in cell lines; cited from earlier work"}}}
{"molecule": "CC(=O)[C@H]1CC[C@H]2[C@@H]3CC[C@H]4C[C@H](O)CC[C@]4(C)[C@H]3C(=O)C[C@]12C", "note": "[alphaxalone]", "values": [{"measurement": "potentiation of the action of GABA", "setting": "[1]", "result": "markedly potentiate the action of GABA"}]}
{"molecule": "CCOC(=O)c1cncn1[C@H](C)c1ccccc1", "note": "[etomidate]", "values": [{"measurement": "time until righting reflex had disappeared", "setting": "[2]; after i.p. dosing 20, 30 or 40 mg/kg, 'usually'", "result": "around 90 seconds"}, {"measurement": "duration of LORR, knock-in versus wildtype mice", "setting": "[2]; etomidate 20, 30 or 40 mg/kg i.p., F1,57=0.005, p=0.9498, FIG. 2", "result": "nearly significantly similar"}, {"measurement": "rate of recovery of rotarod performance, wildtype versus knock-in", "setting": "[3]; 15 mg/kg i.p.", "result": "recovered rotarod performance at a similar rate"}, {"measurement": "rate of recovery of rotarod performance, wildtype versus knock-in", "setting": "[3]; 20 mg/kg and especially 30 mg/kg i.p.", "result": "wildtype mice recovered more slowly than knock-in mice"}, {"measurement": "recovery of performance in the rotarod assay, β2N289S mice compared with wildtype", "setting": "[3]; anesthetic doses", "result": "dramatically faster recovery"}, {"measurement": "time mice could stay on rotarod", "setting": "[3]; knock-in mice, 15 mg/kg i.p.", "result": "approximately 120 seconds"}, {"measurement": "time mice could stay on rotarod", "setting": "[3]; wildtype mice, 15 mg/kg i.p.", "result": "approximately 120 seconds"}, {"measurement": "effect of dose on rate of rotarod recovery", "setting": "[3]; wildtype mice, 15, 20, 30 mg/kg i.p., F18,243=5.80, p<0.00005, FIG. 3", "result": "clear effect on the rate of recovery with increasing dose"}, {"measurement": "EEG burst suppression (% of each minute EEG in suppression), wildtype versus knock-in", "setting": "[4]", "result": "no significant difference in the EEG pattern of both genotypes"}, {"measurement": "level of slow wave sleep versus circadian matched baseline after recovery", "setting": "[5]; knock-in mice, P>0.05", "result": "not statistically different"}, {"measurement": "level of slow wave sleep versus circadian matched baseline after recovery", "setting": "[5]; wildtype mice, up to 3 hours post recovery, ANOVA P<0.05", "result": "enhanced level of sleep"}, {"measurement": "β subunit preference of potentiation and direct activation of receptors", "setting": "[1]; β2 or β3 versus β1 subunit", "result": "favours receptors containing either a β2 or a β3 subunit, versus a β1 subunit"}, {"measurement": "effect of β3 N289S mutation on GABA-modulatory and GABA-mimetic effects", "setting": "[6]", "result": "strongly suppressed"}, {"measurement": "sensitivity of mutant β2 (position 289) receptors", "setting": "[7]", "result": "insensitive"}]}
{"molecule": "Cc1ncc2n1-c1ccc(Cl)cc1C(c1ccccc1F)=NC2", "note": "[midazolam]", "values": [{"measurement": "duration of LORR, knock-in versus wildtype mice", "setting": "[2]; midazolam 80 mg/kg i.p., F1,28=0.61, p=0.44", "result": "no significant difference"}]}
{"molecule": "CCCC(C)C1(CC)C(=O)NC(=O)NC1=O", "note": "(stereo not drawn) [pentobarbitone]", "values": [{"measurement": "duration of LORR, knock-in versus wildtype mice", "setting": "[2]; pentobarbitone 50 mg/kg i.p., F1,28=0.61, p=0.44", "result": "no significant difference"}]}
{"molecule": "CC(C)c1cccc(C(C)C)c1O", "note": "[propofol]", "values": [{"measurement": "potentiation of the action of GABA", "setting": "[1]", "result": "markedly potentiate the action of GABA"}]}
